Assay: xn = mol fraction of the nth substance listed
Settings: 101 kPa, Liquid

CCc1ccccc1 [ethylbenzene] + CN(C)C=O
Settings | mass density [kg/m3]
293.15 K, x1 = 0.0514 | 942.69
293.15 K, x1 = 0.1124 | 936.07
293.15 K, x1 = 0.1754 | 929.58
293.15 K, x1 = 0.2451 | 922.8
293.15 K, x1 = 0.3102 | 916.81
293.15 K, x1 = 0.3754 | 911.11
293.15 K, x1 = 0.4514 | 904.81
293.15 K, x1 = 0.5214 | 899.3
293.15 K, x1 = 0.5862 | 894.43
293.15 K, x1 = 0.6478 | 890
293.15 K, x1 = 0.7012 | 886.28
293.15 K, x1 = 0.7658 | 881.94
293.15 K, x1 = 0.8214 | 878.33
293.15 K, x1 = 0.8845 | 874.33
293.15 K, x1 = 0.9451 | 870.6
293.15 K, x1 = 1 | 867.28
303.15 K, x1 = 0.0562 | 933.08
303.15 K, x1 = 0.1141 | 926.82
303.15 K, x1 = 0.1865 | 919.45
303.15 K, x1 = 0.2451 | 913.8
303.15 K, x1 = 0.3065 | 908.15
303.15 K, x1 = 0.375 | 902.18
303.15 K, x1 = 0.4354 | 897.14
303.15 K, x1 = 0.4952 | 892.39
303.15 K, x1 = 0.5685 | 886.81
303.15 K, x1 = 0.6284 | 882.45
303.15 K, x1 = 0.7025 | 877.28
303.15 K, x1 = 0.7654 | 873.05
303.15 K, x1 = 0.8251 | 869.17
303.15 K, x1 = 0.8821 | 865.57
303.15 K, x1 = 0.9422 | 861.86
303.15 K, x1 = 1 | 858.36
313.15 K, x1 = 0.0684 | 922.45
313.15 K, x1 = 0.1151 | 917.46
313.15 K, x1 = 0.1855 | 910.34
313.15 K, x1 = 0.2525 | 903.93
313.15 K, x1 = 0.3101 | 898.69
313.15 K, x1 = 0.3852 | 892.2
313.15 K, x1 = 0.4421 | 887.51
313.15 K, x1 = 0.5012 | 882.85
313.15 K, x1 = 0.5688 | 877.74
313.15 K, x1 = 0.6211 | 873.93
313.15 K, x1 = 0.6855 | 869.42
313.15 K, x1 = 0.7451 | 865.39
313.15 K, x1 = 0.8021 | 861.65
313.15 K, x1 = 0.8654 | 857.62
313.15 K, x1 = 0.9325 | 853.47
313.15 K, x1 = 1 | 849.38
323.15 K, x1 = 0.0463 | 915.35
323.15 K, x1 = 0.1125 | 908.29
323.15 K, x1 = 0.1785 | 901.64
323.15 K, x1 = 0.2462 | 895.17
323.15 K, x1 = 0.312 | 889.22
323.15 K, x1 = 0.3745 | 883.85
323.15 K, x1 = 0.4352 | 878.85
323.15 K, x1 = 0.4952 | 874.12
323.15 K, x1 = 0.5552 | 869.58
323.15 K, x1 = 0.6125 | 865.41
323.15 K, x1 = 0.6784 | 860.79
323.15 K, x1 = 0.7451 | 856.29
323.15 K, x1 = 0.8021 | 852.57
323.15 K, x1 = 0.8666 | 848.48
323.15 K, x1 = 0.9451 | 843.65
323.15 K, x1 = 1 | 840.35
333.15 K, x1 = 0.0548 | 904.7
333.15 K, x1 = 0.1241 | 897.45
333.15 K, x1 = 0.1852 | 891.41
333.15 K, x1 = 0.2451 | 885.77
333.15 K, x1 = 0.3021 | 880.64
333.15 K, x1 = 0.3625 | 875.45
333.15 K, x1 = 0.4255 | 870.27
333.15 K, x1 = 0.4954 | 864.79
333.15 K, x1 = 0.5621 | 859.79
333.15 K, x1 = 0.6215 | 855.53
333.15 K, x1 = 0.6865 | 851.02
333.15 K, x1 = 0.7451 | 847.11
333.15 K, x1 = 0.8002 | 843.53
333.15 K, x1 = 0.8621 | 839.62
333.15 K, x1 = 0.9351 | 835.15
333.15 K, x1 = 1 | 831.25
343.15 K, x1 = 0.0689 | 893.27
343.15 K, x1 = 0.132 | 886.83
343.15 K, x1 = 0.1952 | 880.71
343.15 K, x1 = 0.2621 | 874.55
343.15 K, x1 = 0.3262 | 868.95
343.15 K, x1 = 0.3865 | 863.91
343.15 K, x1 = 0.4461 | 859.15
343.15 K, x1 = 0.5121 | 854.09
343.15 K, x1 = 0.5685 | 849.94
343.15 K, x1 = 0.6332 | 845.36
343.15 K, x1 = 0.7095 | 840.17
343.15 K, x1 = 0.7651 | 836.53
343.15 K, x1 = 0.8221 | 832.9
343.15 K, x1 = 0.8858 | 828.96
343.15 K, x1 = 0.9514 | 824.99
343.15 K, x1 = 1 | 822.11
353.15 K, x1 = 0.0458 | 885.55
353.15 K, x1 = 0.1112 | 878.86
353.15 K, x1 = 0.1784 | 872.35
353.15 K, x1 = 0.2351 | 867.13
353.15 K, x1 = 0.2965 | 861.72
353.15 K, x1 = 0.3589 | 856.48
353.15 K, x1 = 0.4152 | 851.94
353.15 K, x1 = 0.4784 | 847.06
353.15 K, x1 = 0.5321 | 843.06
353.15 K, x1 = 0.5962 | 838.48
353.15 K, x1 = 0.6748 | 833.09
353.15 K, x1 = 0.7451 | 828.47
353.15 K, x1 = 0.8032 | 824.77
353.15 K, x1 = 0.8745 | 820.37
353.15 K, x1 = 0.9548 | 815.56
353.15 K, x1 = 1 | 812.9
